Data: publication PMC6820730, “Leu^8 and Pro^8 oxytocin agonism differs across human, macaque, and marmoset vasopressin 1a receptors” (Scientific Reports, 2019)
Values joined by “and” are separate entries in the source; they are usually repeats but may differ in a detail not shown here. Equal values may be shown once. One block for each molecule: values may come before it. Starred links: 1 amine or outer side, 2 acyl side, 3 side chain; linkers in the order of their positions; H or OH if unused. Positions of bridges follow the written chain, without caps; N, C: chain ends. Non-standard residues stand in square brackets, D forms with d. Residues, ends and D or L forms follow the SMILES beside them. Tyr(3-I) = N[C@@H](Cc1ccc(O)c(I)c1)C(=O)O; X1 = O=C(CC1(S[*:2])CCCCC1)[*:1]; Orn = NCCC[C@H](N)C(=O)O

Assays:
[1] = molecular target: T1, human AVPR1a (Homo sapiens, UniProt P37288); assay: Ca2+ mobilization assay, CHO cells expressing human AVPR1a; type: cell-based; conditions: human AVPR1a in CHO cells; ± Std. Error, n = 6; read-out: Ca^2+ EC50
T1 sequence (P37288 whole entry): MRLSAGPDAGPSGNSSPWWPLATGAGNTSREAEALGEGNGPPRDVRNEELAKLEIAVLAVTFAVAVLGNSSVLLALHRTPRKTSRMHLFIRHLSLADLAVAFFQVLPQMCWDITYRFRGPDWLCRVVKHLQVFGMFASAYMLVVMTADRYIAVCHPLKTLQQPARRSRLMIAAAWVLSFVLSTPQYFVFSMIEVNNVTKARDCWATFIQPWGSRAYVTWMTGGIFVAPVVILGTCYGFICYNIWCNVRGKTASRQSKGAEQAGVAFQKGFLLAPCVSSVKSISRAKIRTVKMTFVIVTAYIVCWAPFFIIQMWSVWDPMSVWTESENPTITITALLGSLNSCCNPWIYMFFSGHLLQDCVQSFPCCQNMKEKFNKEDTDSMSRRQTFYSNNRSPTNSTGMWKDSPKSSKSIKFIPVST

[2] = system: macaque AVPR1a; assay: Intact cell 125I-OVTA competition binding, CHO cells expressing macaque AVPR1a; conditions: competition with 125I-OVTA in intact CHO cells, 3 h on ice, ± Std. Error, n = 3
Procedure: (§1) Intact cell competition binding assays
(§2) Cells were washed four times with 100 µL ice-cold HGH-BSA, solubilized with 100 µL 0.2 N NaOH, and radioactivity was quantified with a gamma counter. Half-maximal inhibitory concentrations (IC50) were determined by plotting bound ^125I-OVTA vs. competitor concentration. IC50 values were then corrected using the Cheng-Prusoff equation with each receptor’s KD for ^125I-OVTA to produce Ki values for the competing ligands.
(§3) Binding affinities for ^125I-OVTA at each primate AVPR1a were calculated by subtracting nonspecific binding and then plotting bound ^125I-OVTA vs. free ^125I-OVTA. Because concentrations of ^125I-OVTA were not identical from experiment to experiment, technical replicates within each experiment (n = 3) were normalized and then corrected using the Cheng-Prusoff equation. […] Differences in Ca^2+ mobilization potency (EC50) and maximal response to OXT were determined by normalizing OXT-induced (Log M) Ca^2+ responses as a percentage of maximal (100%) AVP-induced Ca^2+ response. […] All best-fit data (Ki, EC50, and Ca^2+ maximal responses) were analyzed using the nonlinear least squares curve-fitting capabilities of GraphPad Prism.

[3] = system: marmoset AVPR1a; assay: Intact cell 125I-OVTA competition binding, CHO cells expressing marmoset AVPR1a; conditions: competition with 125I-OVTA in intact CHO cells, 3 h on ice, ± Std. Error, n = 5
Procedure: as §1, §2, §3

[4] = system: macaque AVPR1a; assay: Ca2+ mobilization assay, CHO cells expressing macaque AVPR1a; type: cell-based
Procedure: (§4) Ca^2+ mobilization assays
as §3, with “. […] . Binding” for “Binding”, “response. We averaged across technical replicates (n = 3) within each biological replicate and then averaged across the biological replicates (n = 3), normalized the data, and tested for significant differences of best-fit LogEC50 using one-way ANOVA analyses.” for “response.”, “.” for “All best-fit data (Ki, EC50, and Ca^2+ maximal responses) were analyzed using the nonlinear least squares curve-fitting capabilities of GraphPad Prism.”

[5] = system: marmoset AVPR1a; assay: Ca2+ mobilization assay, CHO cells expressing marmoset AVPR1a; type: cell-based
Procedure: as §4
as §3, with “. […] . Binding” for “Binding”, “response. We averaged across technical replicates (n = 3) within each biological replicate and then averaged across the biological replicates (n = 3), normalized the data, and tested for significant differences of best-fit LogEC50 using one-way ANOVA analyses.” for “response.”, “.” for “All best-fit data (Ki, EC50, and Ca^2+ maximal responses) were analyzed using the nonlinear least squares curve-fitting capabilities of GraphPad Prism.”

[6] = system: untransfected CHO cells; assay: Ca2+ response in untransfected CHO cells; type: cell-based, Chinese hamster
[7] = molecular target: T1, human AVPR1a; assay: Intact cell saturation binding of 125I-OVTA, human AVPR1a CHO clone
Procedure: (§5) Intact cell saturation binding assays […] Cells were washed four times with 100 μL ice-cold HGH-BSA, solubilized with 100 μL 0.2 N NaOH, and radioactivity quantified with a gamma counter. We also counted aliquots of the used binding medium (i.e., free ^125I-OVTA) to quantify free radioligand CPM directly, eliminating any concerns about differential depletion of ligand due to differential receptor expression levels across species or time. […] Binding affinity for ^125I-OVTA was determined after correcting for non-specific binding by plotting specific bound/free vs. bound using a single-site binding equation (Graphpad Software Inc., La Jolla, CA). […] Binding affinities for ^125I-OVTA at each primate AVPR1a were calculated by subtracting nonspecific binding and then plotting bound ^125I-OVTA vs. free ^125I-OVTA. Because concentrations of ^125I-OVTA were not identical from experiment to experiment, technical replicates within each experiment (n = 3) were normalized and then corrected using the Cheng-Prusoff equation. […] We averaged across technical replicates (n = 3) within each biological replicate and then averaged across the biological replicates (n = 3), normalized the data, and tested for significant differences of best-fit LogEC50 using one-way ANOVA analyses.

[8] = system: macaque AVPR1a; assay: Intact cell saturation binding of 125I-OVTA, macaque AVPR1a CHO clone; conditions: intact CHO cells, 3 h on ice
Procedure: as §5

[9] = system: marmoset AVPR1a; assay: Intact cell saturation binding of 125I-OVTA, marmoset AVPR1a CHO clone; conditions: intact CHO cells, 3 h on ice
Procedure: as §5

[10] = molecular target: human, marmoset, and macaque AVPR1a; assay: Saturation binding of 125I-OVTA, summary over the three primate AVPR1a; conditions: range over the three species
Procedure: Intact cell saturation binding assays […] Cells were washed four times with 100 µL ice-cold HGH-BSA, solubilized with 100 µL 0.2 N NaOH, and radioactivity quantified with a gamma counter. We also counted aliquots of the used binding medium (i.e., free ^125I-OVTA) to quantify free radioligand CPM directly, eliminating any concerns about differential depletion of ligand due to differential receptor expression levels across species or time. […] Binding affinity for ^125I-OVTA was determined after correcting for non-specific binding by plotting specific bound/free vs. bound using a single-site binding equation (Graphpad Software Inc., La Jolla, CA).

[11] = molecular target: human, macaque, and marmoset OXTR; design: method as in Taylor et al., 2018; conditions: range over the three species; ref Taylor et al., 2018; read-out: Affinity (Kd) of 125I-OVTA at human, macaque, and marmoset OXTR; cited from earlier work

EC50 [1]: 36.2 ± 0.25 nM
Molecule: CC[C@H](C)[C@@H]1NC(=O)[C@H](Cc2ccc(O)cc2)NC(=O)[C@@H](N)CSSC[C@@H](C(=O)N2CCC[C@H]2C(=O)N2CCC[C@H]2C(=O)NCC(N)=O)NC(=O)[C@H](CC(N)=O)NC(=O)[C@H](CCC(N)=O)NC1=O [Pro^8-OXT] (H-CYIQNCPPG-NH2; disulfide 1-6)

Molecule: N=C(N)NCCC[C@H](NC(=O)[C@@H]1CCCN1C(=O)[C@@H]1CSSC[C@H](N)C(=O)N[C@@H](Cc2ccc(O)cc2)C(=O)N[C@@H](Cc2ccccc2)C(=O)N[C@@H](CCC(N)=O)C(=O)N[C@@H](CC(N)=O)C(=O)N1)C(=O)NCC(N)=O [AVP, arginine vasopressin]
Ki [2]: 1.2 nM and 1.21 nM
Ki [3]: 0.9 nM and 0.86 nM
EC50 ([4]; macaque AVPR1a in CHO cells, ± Std. Error, n = 3, read-out: Ca^2+ EC50): 0.3 nM and 0.31 nM
Maximal Ca^2+ response, comparison among ligands ([4]; macaque AVPR1a, F(2,6) = 0.23, p = 0.80): equal maximal Ca^2+ responses
Ca^2+ response of AVP alone, % of the maximal Ca^2+ response ([5]; 10 nM AVP alone, marmoset AVPR1a): approximately 80%
EC50 ([5]; marmoset AVPR1a in CHO cells, ± Std. Error, n = 3, read-out: Ca^2+ EC50): 0.05 ± 0.05 nM
Ca^2+ response ([6]; AVP 100 mM to 0.1 nM (so in the source)): no Ca^2+ response

Bmax ([7]; human AVPR1a CHO clone, maximal binding of 125I-OVTA): 6.21 fmol/well
Kd ([7]; human AVPR1a, saturation binding, intact CHO cells, 3 h on ice): 1.17 nM
Kd [10]: 0.331 to 1.17 nM
Molecule: CC[C@H](C)[C@@H]1NC(=O)[C@H](Cc2ccc(OC)cc2)NC(=O)CC2(CCCCC2)SSC[C@@H](C(=O)N2CCC[C@H]2C(=O)N[C@@H](CCCN)C(=O)N[C@@H](Cc2ccc(O)c(I)c2)C(N)=O)NC(=O)[C@H](CC(N)=O)NC(=O)[C@H]([C@@H](C)O)NC1=O [^125I-OVTA, ^125I-ornithine vasotocin analog] (Y(Me)ITNCP[Orn][Tyr(3-I)]-NH2; linker N-5 via X1; C-terminus assumed)
Kd [8]: 0.331 nM
Kd [9]: 0.944 nM
Kd [11]: 0.161 to 0.481 nM

Molecule: Lysophosphatidic acid [Lysophosphatidic acid (LPA)]
Ca^2+ response ([6]; 10 mM (so in the source)): do show a Ca^2+ response
